Measured values published in ChEMBL document CHEMBL1201862, “PubChem BioAssay data set” (2004).
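1) Cells in 96-well plates. 2) Compound, 48 h, 5 concentrations. 3) Linear interpolation between surrounding doses. 4) Unreached endpoint = highest concentration. GI50: concentration for 50% inhibition of growth.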 The source made the active and inactive calls. Rule as the data show it: active = GI50 up to about 1.1 µM and inactive = higher.

Tests used:
Test in all cases: DTP human tumour cell line panel, 48 h
HCC 2998 = tested on: HCC 2998
KM12 = tested on: KM12
LOX IMVI = tested on: LOX IMVI
MDA-MB-231 = tested on: MDA-MB-231
HCT-116 = tested on: HCT-116
K562 = tested on: K562
OVCAR-3 = tested on: OVCAR-3
A498 = tested on: A498
M14 = tested on: M14
NCI/ADR-RES = tested on: NCI/ADR-RES
CAKI-1 = tested on: CAKI-1
Hs-578T = tested on: Hs-578T
SF-268 = tested on: SF-268
SK-MEL-28 = tested on: SK-MEL-28
RXF 393 = tested on: RXF 393
CCRF-CEM = tested on: CCRF-CEM
OVCAR-5 = tested on: OVCAR-5
COLO 205 = tested on: COLO 205
SK-MEL-5 = tested on: SK-MEL-5
SK-OV-3 = tested on: SK-OV-3
NCI-H23 = tested on: NCI-H23
SF-539 = tested on: SF-539
RPMI-8226 = tested on: RPMI-8226
ACHN = tested on: ACHN
SW-620 = tested on: SW-620
U-251 = tested on: U-251
SNB-75 = tested on: SNB-75
HL-60 = tested on: HL-60
TK-10 = tested on: TK-10
OVCAR-8 = tested on: OVCAR-8
EKVX = tested on: EKVX
MCF7 = tested on: MCF7
MOLT-4 = tested on: MOLT-4
HOP-92 = tested on: HOP-92
SK-MEL-2 = tested on: SK-MEL-2
IGROV-1 = tested on: IGROV-1
SF-295 = tested on: SF-295
T47D = tested on: T47D
NCI-H226 = tested on: NCI-H226
MDA-N = tested on: MDA-N
PC-3 = tested on: PC-3
UACC-257 = tested on: UACC-257
A549 = tested on: A549
SN12C = tested on: SN12C
OVCAR-4 = tested on: OVCAR-4
NCI-H522 = tested on: NCI-H522
SR = tested on: SR
Malme-3M = tested on: Malme-3M
NCI-H460 = tested on: NCI-H460
MDA-MB-435 = tested on: MDA-MB-435
HOP-62 = tested on: HOP-62
786-0 = tested on: 786-0
UACC-62 = tested on: UACC-62
DU-145 = tested on: DU-145
UO-31 = tested on: UO-31
SNB-19 = tested on: SNB-19
HCT-15 = tested on: HCT-15
HT-29 = tested on: HT-29
BT-549 = tested on: BT-549

Structure (SMILES): C[N+]1(C)CN(c2ccccc2)C2(CCN(CCCC(=O)c3cccs3)CC2)C1=O
- GI50 (HCC 2998): 65.9 µM (inactive)
- GI50 (KM12): > 100 µM (inactive)
- GI50 (LOX IMVI): 58.1 µM (inactive)
- GI50 (MDA-MB-231): 72.6 µM (inactive)
- GI50 (HCT-116): 58.9 µM (inactive)
- GI50 (K562): 76 µM (inactive)
- GI50 (OVCAR-3): 94.2 µM (inactive)
- GI50 (A498): > 100 µM (inactive)
- GI50 (M14): 23.2 µM (inactive)
- GI50 (NCI/ADR-RES): > 100 µM (inactive)
- GI50 (CAKI-1): > 100 µM (inactive)
- GI50 (Hs-578T): 53.7 µM (inactive)
- GI50 (SF-268): > 100 µM (inactive)
- GI50 (SK-MEL-28): > 100 µM (inactive)
- GI50 (RXF 393): > 100 µM (inactive)
- GI50 (CCRF-CEM): 68.4 µM (inactive)
- GI50 (OVCAR-5): 85.1 µM (inactive)
- GI50 (COLO 205): 48 µM (inactive)
- GI50 (SK-MEL-5): 28.1 µM (inactive)
- GI50 (SK-OV-3): > 100 µM (inactive)
- GI50 (NCI-H23): 82.6 µM (inactive)
- GI50 (SF-539): > 100 µM (inactive)
- GI50 (RPMI-8226): 47.3 µM (inactive)
- GI50 (ACHN): > 100 µM (inactive)
- GI50 (SW-620): > 100 µM (inactive)
- GI50 (U-251): > 100 µM (inactive)
- GI50 (SNB-75): 27.7 µM (inactive)
- GI50 (HL-60): > 100 µM (inactive)
- GI50 (TK-10): > 100 µM (inactive)
- GI50 (OVCAR-8): > 100 µM (inactive)
- GI50 (EKVX): > 100 µM (inactive)
- GI50 (MCF7): 53.8 µM (inactive)
- GI50 (MOLT-4): 71.6 µM (inactive)
- GI50 (HOP-92): 35.7 µM (inactive)
- GI50 (SK-MEL-2): > 100 µM (inactive)
- GI50 (IGROV-1): 68.1 µM (inactive)
- GI50 (SF-295): > 100 µM (inactive)
- GI50 (T47D): > 100 µM (inactive)
- GI50 (NCI-H226): > 100 µM (inactive)
- GI50 (MDA-N): > 100 µM (inactive)
- GI50 (PC-3): > 100 µM (inactive)
- GI50 (UACC-257): 42.4 µM (inactive)
- GI50 (A549): > 100 µM (inactive)
- GI50 (SN12C): > 100 µM (inactive)
- GI50 (OVCAR-4): 96.8 µM (inactive)
- GI50 (NCI-H522): > 100 µM (inactive)
- GI50 (SR): 60 µM (inactive)
- GI50 (Malme-3M): > 100 µM (inactive)
- GI50 (NCI-H460): 57 µM (inactive)
- GI50 (MDA-MB-435): > 100 µM (inactive)
- GI50 (HOP-62): 33.4 µM (inactive)
- GI50 (786-0): > 100 µM (inactive)
- GI50 (UACC-62): > 100 µM (inactive)
- GI50 (DU-145): > 100 µM (inactive)
- GI50 (UO-31): 62.4 µM (inactive)
- GI50 (SNB-19): > 100 µM (inactive)
- GI50 (HCT-15): 56.4 µM
- GI50 (HT-29): 31.8 µM (inactive)

Structure (SMILES): O=C1CCCC2=C1CC1=C(CCCC1=O)N2c1cccc([N+](=O)[O-])c1
- GI50 (HCC 2998): > 100 µM (inactive)
- GI50 (KM12): > 100 µM (inactive)
- GI50 (LOX IMVI): > 100 µM (inactive)
- GI50 (K562): > 100 µM (inactive)
- GI50 (OVCAR-3): > 100 µM (inactive)
- GI50 (A498): > 100 µM (inactive)
- GI50 (M14): > 100 µM (inactive)
- GI50 (NCI/ADR-RES): > 100 µM (inactive)
- GI50 (CAKI-1): > 100 µM (inactive)
- GI50 (Hs-578T): > 100 µM (inactive)
- GI50 (SF-268): > 100 µM (inactive)
- GI50 (SK-MEL-28): > 100 µM (inactive)
- GI50 (RXF 393): 67.9 µM (inactive)
- GI50 (CCRF-CEM): > 100 µM (inactive)
- GI50 (OVCAR-5): > 100 µM (inactive)
- GI50 (SK-MEL-5): > 100 µM (inactive)
- GI50 (SK-OV-3): > 100 µM (inactive)
- GI50 (NCI-H23): > 100 µM (inactive)
- GI50 (SF-539): > 100 µM (inactive)
- GI50 (RPMI-8226): > 100 µM (inactive)
- GI50 (ACHN): > 100 µM (inactive)
- GI50 (SW-620): > 100 µM (inactive)
- GI50 (U-251): > 100 µM (inactive)
- GI50 (BT-549): > 100 µM (inactive)
- GI50 (SNB-75): > 100 µM (inactive)
- GI50 (HL-60): > 100 µM (inactive)
- GI50 (TK-10): > 100 µM (inactive)
- GI50 (OVCAR-8): > 100 µM (inactive)
- GI50 (EKVX): > 100 µM (inactive)
- GI50 (MCF7): 64 µM (inactive)
- GI50 (MOLT-4): > 100 µM (inactive)
- GI50 (IGROV-1): > 100 µM (inactive)
- GI50 (NCI-H226): > 100 µM (inactive)
- GI50 (PC-3): > 100 µM (inactive)
- GI50 (A549): > 100 µM (inactive)
- GI50 (SN12C): > 100 µM (inactive)
- GI50 (OVCAR-4): > 100 µM (inactive)
- GI50 (SR): > 100 µM (inactive)
- GI50 (NCI-H460): > 100 µM (inactive)
- GI50 (786-0): > 100 µM (inactive)
- GI50 (UACC-62): > 100 µM (inactive)
- GI50 (UO-31): > 100 µM (inactive)
- GI50 (SNB-19): > 100 µM (inactive)
- GI50 (HCT-15): > 100 µM
- GI50 (HT-29): > 100 µM (inactive)

Structure (SMILES): C=C1C2C[C@@H]3O[C@H]4C[C@H]5O[C@@]6(C[C@@H]7O[C@]8(C[C@H](C)[C@@H]9O[C@@H]%10CC(CO)O[C@@H]%10C[C@@H]9O8)C[C@H](C)[C@@H]7O6)C[C@H]5O[C@H]4[C@H](C)[C@H]3OC(=O)C[C@H]3CC[C@@H]4OC5[C@H]6O[C@]7(CC[C@H]8CC(=C)[C@H](CC[C@@H](C[C@H]1C)O2)O8)CC6O[C@@H]5[C@@H](O7)[C@H]4O3 (some centres not stated)
- GI50 (HCC 2998): < 0.0001 µM (active)
- GI50 (KM12): < 0.0001 µM (active)
- GI50 (LOX IMVI): < 0.0001 µM (active)
- GI50 (MDA-MB-231): < 0.0001 µM (active)
- GI50 (HCT-116): < 0.0001 µM (active)
- GI50 (K562): < 0.0001 µM (active)
- GI50 (OVCAR-3): < 0.0001 µM (active)
- GI50 (A498): 0.000502 µM (active)
- GI50 (M14): < 0.0001 µM (active)
- GI50 (NCI/ADR-RES): < 0.0001 µM (active)
- GI50 (CAKI-1): < 0.0001 µM (active)
- GI50 (Hs-578T): < 0.0001 µM (active)
- GI50 (SF-268): < 0.0001 µM (active)
- GI50 (RXF 393): < 0.0001 µM (active)
- GI50 (CCRF-CEM): < 0.0001 µM (active)
- GI50 (OVCAR-5): < 0.0001 µM (active)
- GI50 (COLO 205): < 0.0001 µM (active)
- GI50 (SK-MEL-5): < 0.0001 µM (active)
- GI50 (SK-OV-3): < 0.0001 µM (active)
- GI50 (NCI-H23): < 0.0001 µM (active)
- GI50 (RPMI-8226): < 0.0001 µM (active)
- GI50 (ACHN): < 0.0001 µM (active)
- GI50 (SW-620): < 0.0001 µM (active)
- GI50 (U-251): < 0.0001 µM (active)
- GI50 (BT-549): < 0.0001 µM (active)
- GI50 (SNB-75): < 0.0001 µM (active)
- GI50 (TK-10): < 0.0001 µM (active)
- GI50 (OVCAR-8): < 0.0001 µM (active)
- GI50 (EKVX): < 0.0001 µM (active)
- GI50 (MCF7): < 0.0001 µM (active)
- GI50 (MOLT-4): < 0.0001 µM (active)
- GI50 (HOP-92): < 0.0001 µM (active)
- GI50 (SK-MEL-2): < 0.0001 µM (active)
- GI50 (IGROV-1): < 0.0001 µM (active)
- GI50 (SF-295): < 0.0001 µM (active)
- GI50 (NCI-H226): < 0.0001 µM (active)
- GI50 (MDA-N): < 0.0001 µM (active)
- GI50 (PC-3): < 0.0001 µM (active)
- GI50 (UACC-257): < 0.0001 µM (active)
- GI50 (A549): < 0.0001 µM (active)
- GI50 (SN12C): < 0.0001 µM (active)
- GI50 (OVCAR-4): > 0.635 µM (active)
- GI50 (NCI-H522): < 0.0001 µM (active)
- GI50 (SR): < 0.0001 µM (active)
- GI50 (Malme-3M): < 0.0001 µM (active)
- GI50 (NCI-H460): < 0.0001 µM (active)
- GI50 (MDA-MB-435): < 0.0001 µM (active)
- GI50 (HOP-62): < 0.0001 µM (active)
- GI50 (786-0): < 0.0001 µM (active)
- GI50 (UACC-62): < 0.0001 µM (active)
- GI50 (DU-145): < 0.0001 µM (active)
- GI50 (UO-31): < 0.0001 µM (active)
- GI50 (SNB-19): < 0.0001 µM (active)
- GI50 (HCT-15): < 0.0001 µM
